Results reported in US20160120853A1, “TACROLIMUS AND ANALOGUES THEREOF FOR MEDICAL USE” (CHRONOS THERAPEUTICS LIMITED, priority 2013, published 2016).
Entries after “also recorded” stand apart in the source; their conditions may differ.

Tests used:
worms = test: worm lifespan, strain not stated (close structural analogues, dosing frequency); assay type: in vivo; design: Healthspan / Median Lifespan / Max Lifespan: unit not given here; details: for ability to extend the lifespan of worms compared with tacrolimus: lifespan plots FIG. 7 / FIG. 8
Text: (§1) Worm cultures of at least 80 worms were manually assessed daily for the duration of the lifespan.

[1] = blood / plasma metabolic biomarkers of aged rats after 6 m treatment; assay type: in vivo, rat
Text: A range of techniques has been used to determine the effect RDC5 has on levels of blood biomarkers of obesity and metabolic disorders.
Metabolic biomarkers tested included: • Ketone Bodies—kinetic enzymatic • Free Fatty acids—ACS-ACOD Enzymatic • Glycerol—Calometric • Triglycerides—GPO-POD • HDL Cholesterol—CHO-PAP • LDL Cholesterol—Enzymatic • Total Cholesterol—CHO-PAP
The RDC5 treated and control treated animals had their blood plasma profiled at the end of the investigations.

C. elegans = test: lipid accumulation in worms, Oil-Red-O staining; assay type: in vivo; details: for age dependent increase in fat (lipid) accumulation: Oil-Red-O, versus DMSO control
Text: Tacrolimus is able to delay the age dependent increase in fat accumulation in C. elegans. Worms are a versatile model of obesity ref: (Zheng & Greenway, 2012)
Oil-Red-O is a fat-soluble dye used for staining lipids and is quantified by colour light microscopy.

TNF-α = test: blood TNF-α levels in healthy human volunteers after 0.3 mg capsule; assay type: in vivo; details: 0.3 mg oral capsule
Method: (§2) One oral capsule as above containing 0.3 mg tacrolimus was administered to groups of healthy human volunteers. […] The average trough level of tacrolimus (level after 24 hours of administration of each dose) observed was approximately 220 pg/mL.

[2] = blood levels of tacrolimus after one 0.3 mg oral capsule in healthy human volunteers; assay type: in vivo
Method: A hard gelatine capsule was filled with the following composition:
as §2

Osteoblast cells = test: response to oxidative stress of Osteoblast cells; assay type: cell-based
[3] = aged rat study: weekly body weight and survival; assay type: in vivo
Text: Aged rats are known to increase in body weight dramatically in late adulthood. Aged rats were being used as a model in RAT_ND_01 and body weights and tissue samples were taken from the rats in this trial. Rats were 18 m of age at the start of the 6 m trial. The dosage is seen in FIG. 4.
Throughout this study (i.e. from 18 months of age onwards), individual weekly body weight assessments were made for both the control and RDC5 treated group. […] At the 1 and 2 week time-points, before the onset of treatment, no significant difference between RDC5 and control treatment could be observed. Control treated rat body weight continued to increase over time from approximately 250 g to over 320 g at the 6 month time-point (at 24 months of age). […] Weight levels dropped initially however not below a healthy age (approx. 230 g) and remained constant (+/−20 g) for the remainder of the study.
Fifty female Fischer rats initially aged 18 months were used in this study. Animals were housed at standard temperature (22±1° C.) in light controlled environment (lights on from 7 am to 8 pm) with ad libitum access to food and water with softer food introduced at 17 weeks to encourage food intake. Half the animals were treated with vehicle (5 ml/kg, s.c.) 6 days a week and half were treated with RDC5 (1 mg/kg, s.c.) 6 days a week. Individual body weights were recorded at baseline and then once a week until the end of the study.

S. Cerevisiae = test: yeast bioscreen, Chronological Lifespan Profile of ageing yeast cultures; assay type: cell-based
Text: The yeast bioscreen measures the Chronological Lifespan Profile of an ageing yeast cultures. The median lifespan is defined as the time at which 50% of a given population has died. Relative viability (expressed in the below chart) compares the effect of treatment on a cultures viability as a fraction of control vehicle treated cultures.
RDC5 is thus believed to be able to delay ageing and the onset of age-related diseases such as unwanted fat accumulation.

[4] = post mortem MRI scanning of aged rats, fat:lean ratio; assay type: in vivo, rat; details: for sub-cutaneous fat / visceral fat / fat within the body cavity: 24 month old rats, MRI, versus control treated
Text: FIG. 11 presents MIR data comparing 3 month old untreated animal, 24 month old control treated animal and 24 month old tacrolimus treated animal. […] This is consistent with a cosmetic improvement (with respect to reduction in sub-cutaneous fat) and a health improvement (with respect to reduction of fat near internal organs) produced by tacrolimus treatment. The MIR images are marked (areas 1) to show internal fat areas. The sub-cutaneous fat layer is the light grey outer ring only easily seen in the 24 month old untreated control.

Bus8 worms = test: worm lifespan (Healthspan, Median lifespan) in Bus8 background; assay type: in vivo; design: Healthspan: unit not given here; details: for Healthspan: Control 6.87; for Median Lifespan: Control 10.10
Text: as §1

Bus5 worms = test: worm lifespan (Healthspan, Median lifespan) in Bus5 worms; assay type: in vivo; details: for Healthspan: Control 10.93; for Median Lifespan: Control 15.08
Text: as §1

[5] = FIG. 8 experiment, Control 10.4
[6] = 6 m treatment in rats, versus control
[7] = blood plasma at end of study, versus control treated

## CCC[C@@H]1/C=C(\C)C[C@H](C)C[C@H](OC)C2O[C@@](O)(C(=O)C(=O)N3CCCC[C@H]3C(=O)O[C@H](/C(C)=C/[C@@H]3CC[C@@H](O)[C@H](OC)C3)[C@H](C)[C@@H](O)CC1=O)[C@H](C)C[C@@H]2OC [Dihydrotacrolimus]
worms; FIG. 8 experiment, Control 5.9
  Healthspan: 7.3
worms; FIG. 8 experiment, Control 8.1
  Median Lifespan: 10.3
worms; [5]
  Max Lifespan: 13.2
worms
  ability to extend the lifespan of worms compared with tacrolimus: almost as effectively as tacrolimus

## C=CC[C@@H]1/C=C(\C)C[C@H](C)C[C@H](OC)[C@H]2O[C@@](O)(C(=O)C(=O)N3CCCC[C@H]3C(=O)O[C@H](/C(C)=C/[C@@H]3CC[C@@H](O)[C@H](OC)C3)[C@H](C)[C@@H](O)CC1=O)[C@H](C)C[C@@H]2OC [RDC5, tacrolimus]
[1]; [6]
  HDL: significant reductions
  LDL: significant reductions
  free fatty acids: reduction is not statistically significant
  glycerol: reduction is not statistically significant
  ketone bodies: reduction is not statistically significant
  total cholesterol: significant reductions
  triglycerides: significant reductions; also recorded: beneficial reduction
[1]; [7]
  reduction in lactate dehydrogenase levels: 50%
  reduction in total cholesterol: 40%
C. elegans
  age dependent increase in fat (lipid) accumulation: shallower rise
C. elegans; listed as Tacrolimus
  age dependent increase in fat (lipid) accumulation: able to delay
C. elegans; days post adulthood, DMSO control day 4
  time at which maximal lipid accumulation happens: 7 days
TNF-α
  changes in blood TNF-α levels: No significant changes
worms; FIG. 7 experiment, Control 3.0, listed as RDC5 (Evita)
  Healthspan: 4.5
worms; FIG. 7 experiment, Control 3.0, listed as RDC5 (Sigma)
  Healthspan: 4.6
worms; FIG. 7 experiment, Control 5.7, listed as RDC5 (Evita)
  Median Lifespan: 7.1
worms; FIG. 7 experiment, Control 5.7, listed as RDC5 (Sigma)
  Median Lifespan: 7.8
worms; FIG. 7 experiment, Control 8.7, listed as RDC5 (Evita)
  Max Lifespan: 10.3
worms; FIG. 7 experiment, Control 8.7, listed as RDC5 (Sigma)
  Max Lifespan: 11.2
worms; FIG. 8 experiment, Control 5.9
  Healthspan: 7.8
worms; FIG. 8 experiment, Control 8.1
  Median Lifespan: 10.8
worms; [5]
  Max Lifespan: 13.8
worms; dosing on one third of days, except when dosing not commenced early in lifespan
  lifespan compared to control: significant increases
worms; dosing on two thirds of days
  lifespan compared to control: significant increases
worms; in vivo
  shape of dose response, worm lifespan extension: bell shaped dose response
[2]; 0.3 mg oral capsule, healthy volunteers
  average peak level of tacrolimus: approximately 3700 pg/mL
[2]; human, blood, 0.3 mg oral capsule, healthy volunteers, read-out: average area under the curve AUC 0-t
  AUC(0-t): ~23.5 ng·h/mL
[2]; human, blood, 0.3 mg oral capsule, level after 24 hours of administration of each dose, healthy volunteers, read-out: average trough level of tacrolimus
  concentration at 24 h: ~0.22 ng/mL
[2]; two capsules, single dose of 0.6 mg
  expected trough level: about 440 pg/mL
Osteoblast cells
  shape of dose response, response to oxidative stress: bell shaped dose response
[3]; 1 mg/kg s.c. 6 days a week
  age related weight gain: did not show age related weight gain
[3]; 1 mg/kg s.c. 6 days a week, 6 months
  survival of animals at the end of the study versus control: No significant differences
[3]; 6 month study, 24 months of age
  lighter than control treated age-matched rats at end of study: 28%
S. Cerevisiae; S. Cerevisiae
  effect on growth rate: without effecting growth rate
S. Cerevisiae; S. Cerevisiae chronological lifespan
  median lifespan of yeast cultures versus control treated cultures: significantly longer
[4]
  sub-cutaneous fat: less
  visceral fat / fat within the body cavity: less
[4]; listed as tacrolimus
  sub-cutaneous fat: akin to the 3 month old untreated animal
  visceral fat / fat within the body cavity: much less
[4]; rats at 24 months, control roughly 40%, 3 month rats roughly 20%
  average body fat: roughly 30%
Bus8 worms; Bus8, 1 ug/ml
  Healthspan % increase wrt control: 0.5%
  Median Lifespan % increase wrt control: 7.5%
  Healthspan: 6.90
  Median Lifespan: 10.86
Bus8 worms; Bus8, 10 ug/ml
  Healthspan % increase wrt control: 14%
  Median Lifespan % increase wrt control: 20%
  Healthspan: 7.85
  Median Lifespan: 12.18
Bus8 worms; Bus8, 20 ug/ml
  Healthspan % increase wrt control: −9%
  Median Lifespan % increase wrt control: 16%
  Healthspan: 6.23
  Median Lifespan: 11.70
Bus8 worms; Bus8, 40 ug/ml
  Healthspan % increase wrt control: −3%
  Median Lifespan % increase wrt control: 16%
  Healthspan: 6.67
  Median Lifespan: 11.70
Bus8 worms; Bus8 worms
  dose at which efficacy peaks for Median Lifespan extension: 10 µg/mL
Bus8 worms; Bus8 worms, doses tested 1, 10, 20, 40 ug/ml
  most efficacious dose at extending Healthspan: 10 µg/mL
Bus8 worms; cultures of at least 80 worms, assessed daily
  Healthspan and Median lifespan of populations of worms: able to extend
Bus8 worms; dose response in worms, FIG. 9
  least effective dose: 40 µg/mL
Bus5 worms; Bus5, 1 ug/ml
  Healthspan % increase wrt control: 33%
  Median Lifespan % increase wrt control: 23%
  Healthspan: 14.55
  Median Lifespan: 18.54
Bus5 worms; Bus5, 10 ug/ml
  Healthspan % increase wrt control: 23%
  Median Lifespan % increase wrt control: 26%
  Healthspan: 13.43
  Median Lifespan: 19.03
Bus5 worms; Bus5, 40 ug/ml
  Healthspan % increase wrt control: −6%
  Median Lifespan % increase wrt control: 0.5%
  Healthspan: 10.28
  Median Lifespan: 15.17

## CC[C@@H]1/C=C(\C)C[C@H](C)C[C@H](OC)[C@H]2O[C@@](O)(C(=O)C(=O)N3CCCC[C@H]3C(=O)O[C@H](/C(C)=C/[C@@H]3CC[C@@H](O)[C@H](OC)C3)[C@H](C)[C@@H](O)CC1=O)[C@H](C)C[C@@H]2OC [Ascomycin]
worms; FIG. 7 experiment, Control 3.0
  Healthspan: 4.1
worms; FIG. 7 experiment, Control 5.7
  Median Lifespan: 7.2
worms; FIG. 7 experiment, Control 8.7
  Max Lifespan: 10.6
worms
  ability to extend the lifespan of worms compared with tacrolimus: as effectively as tacrolimus
